Measurements published in patent US20110212080A1, “UREA DERIVATIVES AS ANTIBACTERIAL AGENTS” (priority 2008, published 2011).

Molecular target: T1, LpxC enzyme (Escherichia coli, UniProt P0A725)
T1 sequence (P0A725 1-305): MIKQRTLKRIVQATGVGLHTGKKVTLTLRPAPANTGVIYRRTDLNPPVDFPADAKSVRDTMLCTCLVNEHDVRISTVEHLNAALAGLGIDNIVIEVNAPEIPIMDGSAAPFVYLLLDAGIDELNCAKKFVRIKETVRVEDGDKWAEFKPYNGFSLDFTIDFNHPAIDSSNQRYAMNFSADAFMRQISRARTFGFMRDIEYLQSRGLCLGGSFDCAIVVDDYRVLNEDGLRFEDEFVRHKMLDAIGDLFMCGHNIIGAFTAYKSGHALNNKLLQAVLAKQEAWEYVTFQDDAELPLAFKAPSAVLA
Experiment: standard LpxC assay (RapidFire high-throughput mass spectrometry)
Format: biochemical
Conditions: 1.0 μM UDP-3-O-(R-3-hydroxymyristoyl)-N-acetylglucosamine, 60 minutes at room temperature, 2% DMSO; read-out: E.coli IC50
Procedure: The standard LpxC assay consists of […] LpxC enzyme, 1.0 μM UDP-3-O-(R-3-hydroxymyristoyl)-N-acetylglucosamine, and test compound, in assay buffer and 2% DMSO. Assay buffer is comprised of 25 mM HEPES, pH 7.3, 150 mM NaCl, 2.0 mM DTT, and 0.01% BSA. The enzyme reaction is carried out in a 96-well assay plate, in a final volume of 102 μL. Solutions of rest compounds are prepared in 100% DMSO. Reaction additions, in order, are (1) 2.0 μL compound solution, (2) 80 μL of assay buffer, (3) 10 μL of 10 μM UDP-3-O-(R-3-hydroxymyristoyl)-N-acetylgucosamine (in assay buffer) and, (4) 10 μL of LpxC enzyme (20 nM in assay buffer) to initiate the reaction. In positive control reactions, addition (1) has 2.0 μL of 100% DMSO (without compound); these reactions are used as the total signal (TSB) value. Reactions are incubated at room temperature for 60 minutes when 10 μL of 1 N HCl is added to stop the reaction. The plate is shaken by hand for 10 seconds to ensure complete quenching. […]
The concentrations of substrate and product in the reaction mixtures are determined with BioTrove's proprietary RapidFire™ high-throughput mass spectrometry (HTMS). […] The mass spectrometry peak areas of the substrate and product are measured to determine the concentration of these analytes. […] Percent inhibition, % I, in test samples is determined from the following equation: […]

SMILES | IC50 [nM]
C[C@@H](O)[C@@H](NC(=O)N1CCCC(c2ccc(C#Cc3ccccc3)cc2)C1)C(=O)NO (some centres unmarked) [Compound 41] | 50 to 500
C[C@@H](NC(=O)N[C@@H](C(=O)NO)[C@@H](C)O)c1ccc(-n2cccn2)cc1 [Compound 46] | 5000 to 10000
